Values joined by “and” are separate entries in the source; they are usually repeats but may differ in a detail not shown here. Equal entries are not always repeated.
Key:
[1] = test system: HCT-116 cells; assay: Clonogenic assay, HCT-116; format: cell-based, human; conditions: 9 days
Experimental: (§1) Cells (3 × 10^2/well) were plated in a six-well plate and the culture medium was replaced every 2 days. After culturing for 7–10 d, the cells were fixed with 4% paraformaldehyde for 15 min, stained with 0.1% crystal violet for 30 min, and imaged and counted.

[2] = test system: A2780 cells; assay: Cell cycle analysis, A2780; format: cell-based, human
Description: Supplement 44321_2024_51_MOESM5_ESM.zip/Fig4-D.xlsx, sheet "Sheet1" | column: G0/G1; S; G2/M

[3] = test system: LLC sh PD-L1 cells co-cultured with T cells; assay: T cell killing assay (colony formation), LLC sh PD-L1; format: cell-based; conditions: Mus musculus, 72 h, 100 nM, three days, read-out: inhibition rate of colony formation number
Experimental: (§2) To acquire activated T cells, human peripheral blood mononuclear cells (PBMC; LTS1077, Yanjin Biological) were cultured in CTSTM AIIM VTM SFM (A3021002; Gibco) with ImmunoCult Human CD3/CD28/CD2 T-cell activator (25 μL/mL; […] Technologies, Cat#10970) for 48 h according to the manufacturer's protocol. The experiments were performed using mouse anti-CD3 antibody (1 μg/mL; Thermo Scientific, 16-0032-82) and anti-CD28 antibody(5 μg/mL; Thermo Scientific, 16-0281-82). […] Different proportions of cancer cells and activated T cells were utilized according to the purpose of each experiment. The T-cell proliferation assay was 1:3; the T-cell killing assay was 1:10; T cells and cell debris were removed by PBS washing, and the living cancer cells were then quantified by a spectrometer at OD (570 nm) followed by crystal violet staining. page 28: Fig 8: Effects of LZFPN-90 and NMN on tumor immune microenvironment. […] (C) T cells were co-cultured with LLC cells, and treated with LZFPN-90 (100 nM), and NMN (1 mM) to detect the cell proliferation by T cell killing assay. Data are presented as mean ± SEM; *P < 0.05, **P < 0.01, ***P < 0.001 compared with control. n.s., not significant. (1 picture or pasted object on this page, not shown here)

[4] = molecular target: T1, PD-1/PD-L1 interaction (Homo sapiens, UniProt Q9NZQ7); assay: In vitro PD-1/PD-L1-binding assay (Cisbio kit)
T1 construct: purchased Cisbio 64ICP01PEG
Experimental: The biochemical activity of the final compounds was evaluated using a PD-1/PD-L1 binding assay kit (Cisbio, cat. No. 64ICP01PEG). Experiments were performed according to the manufacturer’s instructions.

[5] = test system: LLC cells co-cultured with T cells; assay: T cell killing assay (colony formation), LLC sh Vector; format: cell-based; conditions: Mus musculus, 72 h, 100 nM, three days, read-out: inhibition rate of colony formation number
Experimental: as §2

[6] = test system: A2780 cells; assay: MTT assay 48 h, A2780; format: cell-based, human
Experimental: Cells (5 × 10^3/well) were seeded into a 96-well plate and cultured at 37 °C in a 5% CO2 incubator. […] At the final time point, 10 μl MTT solution (5 mg/ml, Sigma, Burlington, MA, USA) was added to each well and incubated for an additional 4 h at 37 °C in a 5% CO2 incubator. Then,100 μl of DMSO was added to each well and mixed thoroughly. Optical density was measured at 492 nm using a microplate reader (Molecular Devices, San Jose, CA, USA).

[7] = test system: LLC sh NAMPT cells co-cultured with T cells; assay: T cell killing assay (colony formation), LLC sh NAMPT; format: cell-based; conditions: Mus musculus, 72 h, 100 nM, three days, read-out: inhibition rate of colony formation number
Experimental: as §2

[8] = test system: LLC cells; assay: Clonogenic assay, LLC; format: cell-based, mouse; conditions: 9 days
Experimental: as §1

[9] = test system: A2780 cells; assay: Apoptosis assay (Annexin V/PI), A2780; format: cell-based, human
Experimental: The cells are treated with the compounds. After 48–72 h, the cells were harvested and washed twice with cold PBS. The cells were then stained with Annexin V/propidium iodide (PI) (BD Biosciences) and examined using a NovoCyte Flow Cytometer (ACEA Biosciences). Data were analyzed using NovoExpress software (ACEA Biosciences).

T1 sequence (Q9NZQ7 19-238 limits assumed): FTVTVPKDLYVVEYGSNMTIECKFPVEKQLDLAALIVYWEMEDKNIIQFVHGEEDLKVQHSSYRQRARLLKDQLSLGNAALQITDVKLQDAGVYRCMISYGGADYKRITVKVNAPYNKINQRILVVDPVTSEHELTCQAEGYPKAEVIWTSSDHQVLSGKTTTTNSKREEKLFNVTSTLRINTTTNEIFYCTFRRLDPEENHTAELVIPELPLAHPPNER

## CCN(CC)CCCOc1cccc(-c2cccc3c2CCN3C(=O)c2ncc(CNC(=NC#N)Nc3ccncc3)s2)c1 [LZFPN-90]
[1]; LZ90-H (2 nM)
  Colony formation relative to Ctrl: 0.17
[1]; LZ90-L (0.5 nM), Ctrl = 1
  Colony formation relative to Ctrl: 0.6
[1]; LZ90-M (1 nM)
  Colony formation relative to Ctrl: 0.26
[2]; LZ90 20
  Cell cycle G0/G1: 36.54 and 37.05 and 37.41
  Cell cycle G2/M: 35.48 and 38.97 and 35.02
  Cell cycle S: 24.02 and 27.3 and 26.67
[2]; LZ90 40
  Cell cycle G0/G1: 46.76 and 45.07
  Cell cycle G2/M: 35.5 and 29.25 and 33.56
  Cell cycle S: 23.4 and 20.94 and 19.12
[2]; LZ90 60
  Cell cycle G0/G1: 32.3 and 44.46
  Cell cycle G2/M: 27.02 and 27.05
  Cell cycle S: 39.91 and 27.43
[3]
  inhibition at 0.1 µM: 21.9%
[4]
  IC50: 13 nM
[5]
  inhibition at 0.1 µM: 48.2%
[6]
  Relative inhibition (敏感性): 0.85
[7]
  inhibition at 0.1 µM: 26.8%
[8]; LZ90-H (80 nM)
  Colony formation relative to Ctrl: 0.24
[8]; LZ90-L (20 nM), Ctrl = 1
  Colony formation relative to Ctrl: 0.68
[8]; LZ90-M (40 nM)
  Colony formation relative to Ctrl: 0.53
[9]; LZ90 15 nM
  Apoptotic cells (sum of both Annexin-positive quadrants): 5.88 and 5.86 and 5.93
[9]; LZ90 60 nM
  Apoptotic cells (sum of both Annexin-positive quadrants): 12.2 and 12.06 and 12.87
[9]; LZ90 240 nM
  Apoptotic cells (sum of both Annexin-positive quadrants): 48.53 and 48.13 and 46.72

From PMC11018795, “The regulatory relationship between NAMPT and PD-L1 in cancer and identification of a dual-targeting inhibitor” (EMBO Molecular Medicine, 2024)
